From ChEMBL document CHEMBL5143515, “Identification of new halogen-containing 2,4-diphenyl indenopyridin-5-one derivative as a boosting agent for the anticancer responses of clinically available topoisomerase inhibitors” (Eur J Med Chem, 2022)
Structures can show the parent of a compound that is named as a salt.

Columns and labels:
[1] = target: T1, DNA topoisomerase 1 (Homo sapiens) (UniProt P11387); assay: Inhibition of recombinant human topoisomerase 1 assessed as relaxation of supercoiled plasmid pBR322 DNA at 100 uM by agarose gel electrophoresis (reference value: 83.2%)
T1 sequence (whole entry): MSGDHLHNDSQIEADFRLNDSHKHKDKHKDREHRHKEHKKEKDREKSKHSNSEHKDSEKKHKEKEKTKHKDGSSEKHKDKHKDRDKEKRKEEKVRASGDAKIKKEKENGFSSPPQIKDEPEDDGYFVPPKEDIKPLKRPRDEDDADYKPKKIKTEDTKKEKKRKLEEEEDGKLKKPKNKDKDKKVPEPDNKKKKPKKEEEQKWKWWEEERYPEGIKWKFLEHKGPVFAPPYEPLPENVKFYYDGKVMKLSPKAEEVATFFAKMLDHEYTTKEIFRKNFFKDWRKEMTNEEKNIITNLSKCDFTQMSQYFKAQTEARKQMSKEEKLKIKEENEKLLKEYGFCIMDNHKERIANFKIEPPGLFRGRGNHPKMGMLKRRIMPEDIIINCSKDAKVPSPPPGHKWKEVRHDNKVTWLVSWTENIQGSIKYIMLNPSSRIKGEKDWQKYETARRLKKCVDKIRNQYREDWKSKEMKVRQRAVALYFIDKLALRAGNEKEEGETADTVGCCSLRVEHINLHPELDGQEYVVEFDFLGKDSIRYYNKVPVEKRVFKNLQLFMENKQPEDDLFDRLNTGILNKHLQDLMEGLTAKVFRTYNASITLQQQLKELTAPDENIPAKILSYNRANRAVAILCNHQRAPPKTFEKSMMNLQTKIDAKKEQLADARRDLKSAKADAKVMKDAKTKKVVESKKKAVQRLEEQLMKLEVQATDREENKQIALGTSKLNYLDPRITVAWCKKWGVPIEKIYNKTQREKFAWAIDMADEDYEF

[2] = target: DNA topoisomerase 2-alpha (Homo sapiens) (UniProt P11388); assay: Inhibition of recombinant human topoisomerase 2alpha assessed as relaxation of supercoiled plasmid pBR322 DNA at 100 uM by agarose gel electrophoresis (reference value: 82.2%)
[3] = test system: HCT-15; assay: Antiproliferative activity against human HCT-15 cells after 72 hrs by EZ-Cytox colorimetric assay; format: functional, cell-based; conditions: HCT-15, 72 h
[4] = test system: HeLa; assay: Antiproliferative activity against human HeLa cells after 72 hrs by EZ-Cytox colorimetric assay; format: functional, cell-based
[5] = target: DNA topoisomerase 2-alpha (Homo sapiens) (UniProt P11388); assay: Inhibition of recombinant human topoisomerase 2alpha assessed as relaxation of supercoiled plasmid pBR322 DNA at 20 uM by agarose gel electrophoresis (reference value: 48.4%)
[6] = test system: DU-145; assay: Antiproliferative activity against human DU-145 cells after 72 hrs by EZ-Cytox colorimetric assay; format: functional, cell-based; conditions: DU-145, 72 h
[7] = test system: T47D; assay: Antiproliferative activity against human T47D cells after 72 hrs by EZ-Cytox colorimetric assay; format: functional, cell-based
[8] = target: T1, DNA topoisomerase 1 (Homo sapiens); assay: Inhibition of recombinant human topoisomerase 1 assessed as relaxation of supercoiled plasmid pBR322 DNA at 20 uM by agarose gel electrophoresis (reference value: 40.4%)
[9] = target: DNA topoisomerase 2-alpha (Homo sapiens) (UniProt P11388); assay: Inhibition of recombinant human topoisomerase 2alpha assessed as relaxation of supercoiled plasmid pBR322 DNA at 100 uM by agarose gel electrophoresis (reference value: […]%)
[10] = target: T1, DNA topoisomerase 1 (Homo sapiens); assay: Inhibition of recombinant human topoisomerase 1 assessed as relaxation of supercoiled plasmid pBR322 DNA at 100 uM by agarose gel electrophoresis (reference value: 90.6%)
[11] = target: DNA topoisomerase 2-alpha (Homo sapiens) (UniProt P11388); assay: Inhibition of recombinant human topoisomerase 2alpha assessed as relaxation of supercoiled plasmid pBR322 DNA at 20 uM by agarose gel electrophoresis relative to control
[12] = target: DNA topoisomerase 2-alpha (Homo sapiens) (UniProt P11388); assay: Inhibition of recombinant human topoisomerase 2alpha assessed as relaxation of supercoiled plasmid pBR322 DNA at 100 uM by agarose gel electrophoresis (reference value: 84.9%)
[13] = target: T1, DNA topoisomerase 1 (Homo sapiens); assay: Inhibition of recombinant human topoisomerase 1 assessed as relaxation of supercoiled plasmid pBR322 DNA at 100 uM by agarose gel electrophoresis (reference value: […]%)
[14] = target: DNA topoisomerase 2-alpha (Homo sapiens) (UniProt P11388); assay: Inhibition of recombinant human topoisomerase 2alpha assessed as relaxation of supercoiled plasmid pBR322 DNA at 20 uM by agarose gel electrophoresis (reference value: […]%)
[15] = target: DNA topoisomerase 2-alpha (Homo sapiens) (UniProt P11388); assay: Inhibition of recombinant human topoisomerase 2alpha assessed as relaxation of supercoiled plasmid pBR322 DNA at 100 uM by agarose gel electrophoresis (reference value: 81%)
[16] = target: T1, DNA topoisomerase 1 (Homo sapiens); assay: Inhibition of recombinant human topoisomerase 1 assessed as relaxation of supercoiled plasmid pBR322 DNA at 20 uM by agarose gel electrophoresis (reference value: 38.3%)
[17] = target: T1, DNA topoisomerase 1 (Homo sapiens); assay: Inhibition of recombinant human topoisomerase 1 assessed as relaxation of supercoiled plasmid pBR322 DNA at 100 uM by agarose gel electrophoresis (reference value: 81.9%)

Chain of DNA topoisomerase 2-alpha (Homo sapiens) (P11388 whole entry): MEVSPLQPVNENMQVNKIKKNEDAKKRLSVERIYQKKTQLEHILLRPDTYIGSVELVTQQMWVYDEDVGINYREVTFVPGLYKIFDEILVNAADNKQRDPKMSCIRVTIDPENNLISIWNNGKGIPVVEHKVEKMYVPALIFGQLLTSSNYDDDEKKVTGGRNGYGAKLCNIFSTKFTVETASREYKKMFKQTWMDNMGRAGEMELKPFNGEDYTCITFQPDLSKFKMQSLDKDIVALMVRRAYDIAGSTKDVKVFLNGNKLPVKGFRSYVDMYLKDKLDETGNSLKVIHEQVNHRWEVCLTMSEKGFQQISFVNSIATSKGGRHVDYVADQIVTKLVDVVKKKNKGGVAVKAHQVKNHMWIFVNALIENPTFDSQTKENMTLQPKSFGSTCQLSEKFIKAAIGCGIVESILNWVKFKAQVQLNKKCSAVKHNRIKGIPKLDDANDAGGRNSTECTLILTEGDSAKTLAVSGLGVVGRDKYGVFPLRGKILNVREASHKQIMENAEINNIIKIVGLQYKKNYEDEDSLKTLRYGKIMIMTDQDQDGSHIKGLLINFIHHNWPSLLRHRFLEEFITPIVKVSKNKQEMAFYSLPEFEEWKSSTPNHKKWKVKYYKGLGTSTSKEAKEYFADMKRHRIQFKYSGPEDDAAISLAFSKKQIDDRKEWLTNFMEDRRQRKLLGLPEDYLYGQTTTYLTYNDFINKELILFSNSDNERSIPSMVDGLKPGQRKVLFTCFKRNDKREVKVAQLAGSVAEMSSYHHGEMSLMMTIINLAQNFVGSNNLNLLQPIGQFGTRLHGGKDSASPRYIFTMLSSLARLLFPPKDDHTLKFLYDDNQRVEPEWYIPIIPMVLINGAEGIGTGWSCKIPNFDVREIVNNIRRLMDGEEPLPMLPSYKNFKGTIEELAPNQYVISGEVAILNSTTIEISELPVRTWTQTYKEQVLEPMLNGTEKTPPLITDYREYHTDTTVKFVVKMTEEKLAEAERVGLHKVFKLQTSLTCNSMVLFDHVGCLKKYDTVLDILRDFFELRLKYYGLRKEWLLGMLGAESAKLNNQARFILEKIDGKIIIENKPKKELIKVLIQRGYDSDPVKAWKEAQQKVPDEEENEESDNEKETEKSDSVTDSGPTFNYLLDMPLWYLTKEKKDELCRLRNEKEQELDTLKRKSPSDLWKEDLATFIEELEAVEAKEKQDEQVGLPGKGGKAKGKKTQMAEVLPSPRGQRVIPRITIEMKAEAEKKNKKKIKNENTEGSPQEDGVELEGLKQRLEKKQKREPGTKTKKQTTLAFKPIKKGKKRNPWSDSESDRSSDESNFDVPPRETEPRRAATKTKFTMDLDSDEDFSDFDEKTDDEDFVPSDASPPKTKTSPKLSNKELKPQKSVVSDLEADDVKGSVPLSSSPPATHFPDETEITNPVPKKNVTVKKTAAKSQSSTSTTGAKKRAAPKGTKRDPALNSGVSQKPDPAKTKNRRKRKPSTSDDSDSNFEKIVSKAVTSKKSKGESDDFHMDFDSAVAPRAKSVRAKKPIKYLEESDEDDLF

| inhibition [1] [%] | inhibition [2] [%] | inhibition [5] [%] | inhibition [8] [%] | inhibition [9] [%] | inhibition [10] [%] | inhibition [11] [%] | inhibition [12] [%] | inhibition [13] [%] | inhibition [14] [%] | inhibition [15] [%] | inhibition [16] [%] | inhibition [17] [%] | SMILES | IC50 [3] [µM] | IC50 [4] [µM] | IC50 [6] [µM] | IC50 [7] [µM] |
| --- | --- | --- | --- | --- | --- | --- | --- | --- | --- | --- | --- | --- | --- | --- | --- | --- | --- |
| 82.9 | 83.8 | 5.3 | 0 |  |  |  |  |  |  |  |  |  | O=C1c2ccccc2-c2nc(-c3cccc(Br)c3)cc(-c3ccccc3)c21 | 17.9 | 20.2 | 9.48 | 28 |
|  |  |  |  | 0 | 7.6 |  |  |  |  |  |  |  | OC1c2ccccc2-c2nc(-c3cccc(Cl)c3)cc(-c3ccccc3)c21 (configuration not stated) | > 50 | > 50 | > 50 | > 50 |
| 82.9 | 93.4 | 60.4 | 0 |  |  |  |  |  |  |  |  |  | O=C1c2ccccc2-c2nc(-c3ccccc3Br)cc(-c3ccccc3)c21 | > 50 | > 50 | 8.42 | > 50 |
|  |  |  |  |  |  | 8.1 | 52.2 | 7.2 |  |  |  |  | OC1c2ccccc2-c2nc(-c3ccccc3C(F)(F)F)cc(-c3ccccc3)c21 (configuration not stated) | > 50 | > 50 | > 50 | > 50 |
| 34.2 | 0 |  | 0 |  |  |  |  |  |  |  |  |  | O=C1c2ccccc2-c2nc(-c3cccc(F)c3)cc(-c3ccccc3)c21 | > 50 | > 50 | > 50 | > 50 |
| 66.7 | 93.3 | 71.8 | 0 |  |  |  |  |  |  |  |  |  | O=C1c2ccccc2-c2nc(-c3ccccc3Cl)cc(-c3ccccc3)c21 | > 50 | > 50 | > 50 | > 50 |
| 80.4 | 91.3 | 60 | 0 |  |  |  |  |  |  |  |  |  | O=C1c2ccccc2-c2nc(-c3ccc(Cl)cc3)cc(-c3ccccc3)c21 | > 50 | > 50 | 5.76 | > 50 |
|  |  |  |  |  |  |  |  |  | 0.3 | 57.2 | 8.1 | 89.8 | O=C1c2ccccc2-c2nc(-c3ccc(C(F)(F)F)cc3)cc(-c3ccccc3)c21 | 20.5 | > 50 | 42.2 | > 50 |
|  |  |  |  | 0.2 | 12.6 |  |  |  |  |  |  |  | OC1c2ccccc2-c2nc(-c3ccccc3Br)cc(-c3ccccc3)c21 (configuration not stated) | 7.03 | 16 | 6.48 | 1.55 |
|  |  |  |  |  |  | 8.7 | 61.2 | 26.8 |  |  |  |  | OC1c2ccccc2-c2nc(-c3ccc(OC(F)(F)F)cc3)cc(-c3ccccc3)c21 (configuration not stated) | > 50 | > 50 | > 50 | > 50 |
|  |  |  |  |  |  | 9.9 | 51.2 | 13.8 |  |  |  |  | OC1c2ccccc2-c2nc(-c3ccc(C(F)(F)F)cc3)cc(-c3ccccc3)c21 (configuration not stated) | > 50 | > 50 | 338 | 24.8 |
|  |  |  |  |  |  |  |  |  |  |  |  |  | COc1cccc2c1C(=O)c1c(O)c3c(c(O)c1C2=O)C[C@@](O)(C(=O)CO)C[C@@H]3O[C@H]1C[C@H](N)[C@H](O)[C@H](C)O1 [DOXORUBICIN HYDROCHLORIDE] | 136 | 1.36 | 2.99 | 1.48 |
|  |  |  |  |  |  |  |  |  |  | 0.6 | 0 | 35 | O=C1c2ccccc2-c2nc(-c3ccccc3OC(F)(F)F)cc(-c3ccccc3)c21 | 14.7 | > 50 | 10.7 | > 50 |
|  |  |  |  | 0 | 8.6 |  |  |  |  |  |  |  | OC1c2ccccc2-c2nc(-c3cccc(Br)c3)cc(-c3ccccc3)c21 (configuration not stated) | > 50 | > 50 | 43.2 | > 50 |
